From US5370770A, “Method for deinking printed waste paper using soybean peroxidase” (priority 1992, dated 1994) come the findings set out here.

Molecules are shown by their SMILES.

The target of data set [1] is Soybean Peroxidase (SBP) (Glycine max, UniProt O22443). The data set is described as follows: Oxidation of methoxybenzene substrates by soybean peroxidase (redox potential comparison). Type of data set: biochemical. The conditions noted are these: absorbance change at substrate λmax. The text has this: (§1) Any of a variety of peroxidases can be used in the present invention.
Chain of Soybean Peroxidase (SBP) (O22443 27-332): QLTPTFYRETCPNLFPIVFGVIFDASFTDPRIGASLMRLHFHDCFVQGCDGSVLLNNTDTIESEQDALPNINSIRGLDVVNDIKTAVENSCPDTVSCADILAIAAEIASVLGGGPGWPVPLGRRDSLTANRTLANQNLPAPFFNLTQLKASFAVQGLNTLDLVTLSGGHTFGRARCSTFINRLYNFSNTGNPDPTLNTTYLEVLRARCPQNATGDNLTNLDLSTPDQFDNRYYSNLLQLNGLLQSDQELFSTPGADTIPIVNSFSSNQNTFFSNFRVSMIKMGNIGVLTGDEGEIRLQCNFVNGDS
(§2) *all values in Δ Abs/(mg enzymemin).
**curve of ΔAbs/time slopes upward as reaction proceeds.

Data set [2] in a line: Half-wave redox potential of substrates. Type of data set: physicochemical. The conditions noted are these: redox potential of substrate.
In data set [3] the target is T1, Horseradish Peroxidase (HRP) (Armoracia rusticana, UniProt P00433).
T1 sequence (P00433 31-353): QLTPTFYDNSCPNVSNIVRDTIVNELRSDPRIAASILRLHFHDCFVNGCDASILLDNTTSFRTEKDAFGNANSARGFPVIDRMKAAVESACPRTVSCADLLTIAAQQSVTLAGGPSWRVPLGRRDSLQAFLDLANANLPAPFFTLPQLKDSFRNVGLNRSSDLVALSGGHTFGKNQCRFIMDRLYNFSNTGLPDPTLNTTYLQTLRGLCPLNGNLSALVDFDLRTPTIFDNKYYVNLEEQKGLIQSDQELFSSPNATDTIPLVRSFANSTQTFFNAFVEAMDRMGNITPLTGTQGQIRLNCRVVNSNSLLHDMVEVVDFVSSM
The data set is described as follows: Oxidation of methoxybenzene substrates by horseradish peroxidase (redox potential comparison). It is filed as biochemical. The settings on record: absorbance change at substrate λmax.
Excerpt: as §1, §2

Take `COc1cc(OC)c(OC)c(OC)c1` [1,2,3,5-tetramethoxybenzene]: in data set [1], the SBP was 3.02 Δ Abs/(mg enzymemin). Also, the “E1/2 (V)” value in data set [2] stood at 1.09 V. Moreover, in data set [3], the HRP is on record as 0.30 Δ Abs/(mg enzymemin).
As for `COc1ccc(OC)c(OC)c1` [1,2,4-trimethoxybenzene], the SBP in data set [1] was 9.23 Δ Abs/(mg enzymemin). For the same compound, the “E1/2 (V)” value in data set [2] came out at 1.12 V. For the same compound, in data set [3], the HRP is 1.64 Δ Abs/(mg enzymemin).
As for `COc1ccc(OC)cc1` [1,4-dimethoxybenzene], the SBP in data set [1] was 0.072 Δ Abs/(mg enzymemin). Moreover, the “E1/2 (V)” value in data set [2] is reported as 1.34 V. Besides, in data set [3], the HRP is reported as 0 Δ Abs/(mg enzymemin).
The matching figures for `COc1c(OC)c(OC)c(OC)c(OC)c1OC` [hexamethoxybenzene]: 0.22 Δ Abs/(mg enzymemin), 1.24 V and 0 Δ Abs/(mg enzymemin).
`COc1cc(OC)c(OC)c(OC)c1OC` [pentamethoxybenzene]: the SBP in data set [1] is recorded as 8.76 Δ Abs/(mg enzymemin). For the same compound, in data set [2], the “E1/2 (V)” value is given as 1.07 V. Further, the HRP in data set [3] is 2.50 Δ Abs/(mg enzymemin).
